# Assay results taken from patent US7166582B2, “Antiallergic composition” (J-Oil Mills, Inc., priority 2003, dated 2007).
# What was measured:
# serum total IgE = assay: Serum total IgE concentration by EIA in PiCl-sensitized NC/Nga mice; assay type: in vivo, NC/Nga Tnd Crj male mice; details: 0.5% in AIN93G feed; blood on 43rd day after administration; vs control group; FIG. 4
# Excerpt: (§1) NC/Nga Tnd Crj male mice at six weeks of age (purchased from Nihon Charles River) were habituated for two weeks. The animals decided as healthy were used for the experiments after an observation of general conditions and body weight measurement. The mice were divided into three groups so that the body weight was averaged. One group was composed of nine mice. A purified livestock feed (AIN93G produced by Oriental Yeast Co.) was used as a basic feed. The mice in Group 1 (a control group) was fed with the purified feed, while the mice in Groups 2 and 3 were fed with a feed prepared by adding the test samples as shown In Table 1 in the basic feed.
# The serum total IgE concentration was measured as follows. The blood was extracted on day four before administration, and on 43 rd day after administration (the day for starting administration is counted as the first day). The blood (200 μL) is sampled from the orbital plexus venosus using a heparinated capillary. […]
# (§2) The score of dermatitis, serum total IgE concentration, and the average body weight and standard deviation thereof were calculated. The significant difference was evaluated by the Student's t-test. A significance level of 5% was evaluated as significant, and the results of the Student's t-test were expressed by dividing into a level of less than 5% (P<0.05) and less than 1% (P<0.01).
# [1] = system: conventional grade NC/Nga mice that spontaneously start the atopic dermatitis; assay: Performance Evaluation Test 2: spontaneous atopic dermatitis in conventional grade NC/Nga mice; assay type: in vivo, Conventional grade female NC/Nga mice; details: feed supplemented with 1% stachyose
# Excerpt: The effect of stachyose on the dermatitis was investigated using conventional grade NC/Nga mice that spontaneously start the atopic dermatitis without applying any haptens (H. Matsuda et al., International Immunology, vol. 9, 461–466 (1997)).
# Conventional grade female NC/Nga mice at four weeks of age (purchased from Nihon SLC) were habituated for one week. The mice were divided into two groups so that the body weight was averaged. One group was composed of six mice. All the mice were freely fed on the purified livestock feed (AIN93G) before grouping, and the stachyose administration group was fed on a feed supplemented with 1% stachyose after grouping. The skin conditions were observed and evaluated once per two weeks from the day of start of grouping. The evaluation method was the same as in performance evaluation method 1.
# [2] = system: dermatitis induced by repeated application of hapten on an NC/Nga mouse; assay: Performance Evaluation Test 1: dermatitis induced by repeated application of hapten (PiCl) on NC/Nga mice; assay type: in vivo, NC/Nga Tnd Crj male mice; details: 0.5% in AIN93G feed; for score of dermatitis (progress of the atopic dermatitis): PiCl induction once a week for five weeks, vs control group, FIGS. 1 and 2
# Method: The performance of stachyose mixed in livestock feeds was evaluated against the dermatitis induced by repeated application of hapten on an NC/Nga mouse frequently used as an atopic dermatitis model animal (M. Okada et al., Oyo Yakuri/Pharmcometrics, vol. 59, 135–139 (2000)).
# as §1
# Stachyose used in this test was purified to a purity of 98% by ion exchange chromatography after extracting from soybeans with 70% ethanol. Saccharose used in this test was purchased from Wako Junyaku Kabushiki Kaisha.
# The mice at eight weeks of age were used for sensation as follows. […]
# The symptoms of the atopic dermatitis were observed as follows. The skin condition was observed twice a week starting from a day before the first induction, and the following items were evaluated based on the criteria of clinical syndromes of the human atopic dermatitis. […]
# as §2
# atopic dermatitis = details: Japanese Patent Application Laid-open No. Hei 11-255656; cited from earlier work
# IgE = details: Japanese Patent Application Laid-open No. 2001-288093; cited from earlier work
SMILES,level of serum total IgE (serum total IgE),"onset of dermatitis ([1]; 6 to 8 weeks after grouping, control: evident dermatitis on face and ears)",scores of dermatitis ([1]; FIG. 5),"onset of dermatitis ([1]; week four after grouping, control: five of six mice with dermatitis on the face)",score of dermatitis (progress of the atopic dermatitis) [2],"appearance of the skin (photograph of representative mouse) ([2]; compared with the control group (Group 1), FIG. 3)",anti-atopic dermatitis action (atopic dermatitis),production of IgE (IgE)
OC[C@H]1O[C@H](OC[C@H]2O[C@H](OC[C@H]3O[C@H](O[C@]4(CO)O[C@H](CO)[C@@H](O)[C@@H]4O)[C@H](O)[C@@H](O)[C@@H]3O)[C@H](O)[C@@H](O)[C@H]2O)[C@H](O)[C@@H](O)[C@H]1O [stachyose],does not influence the level of IgE,no onset of dermatitis was observed at all,the effect of stachyose is evident,no onset of the dermatitis was observed,progress of the atopic dermatitis was evidently blocked,An evident difference of the appearance of the skin was observed,,
"OC[C@H]1O[C@@](CO)(O[C@H]2O[C@H](CO)[C@@H](O)[C@H](O)[C@H]2O)[C@@H](O)[C@@H]1O [saccharose, reference compound]",,,,,No effects were observed,,,
OC[C@H]1O[C@H](OC[C@H]2O[C@H](O[C@]3(CO)O[C@H](CO)[C@@H](O)[C@@H]3O)[C@H](O)[C@@H](O)[C@@H]2O)[C@H](O)[C@@H](O)[C@H]1O [raffinose],,,,,,,has an anti-atopic dermatitis action,has an action for suppressing production of IgE
